Measurements taken from patent US12721835B2, “Anticoccidial composition comprising violacein, and use thereof” (CJ CHEILJEDANG CORPORATION, priority 2020, dated 2026).

Assays:
[1] = tested on: Eimeria maxima (E. maxima) protozoa (sporozoites); assay: Acid resistance of violacein: protozoal death rate after acid exposure; assay type: cell-based
Experimental: In the present example, the acid resistance of the violacein was to be evaluated. […] Then, it was neutralized (pH 7.0) by adding sodium hydroxide (NaOH) solution, and 200,000 Eimeria maxima (E. maxima) protozoa (sporozoites) were exposed to the violacein at various concentrations of 0.1 to 100 ppm diluted using PBS solution, and they were reacted at a temperature of 41° C. for 4 hours. In Table 11, the control group means a violacein treatment group without treating the acidic condition, and the protozoa alone means a group to which violacein was not treated.

[2] = In vivo safety evaluation: violacein content remaining in body after feeding (LC/MS); details: chicken (broiler), cecum luminal intestinal contents, oral, 50 ppm in feed; broilers fed feed comprising 50 ppm violacein for 7 days; read-out: Violacein content (mg/kg), Cecum luminal intestinal contents
Experimental: The safety evaluation of violacein was conducted in a breeding facility under the condition described in Example 1. At 7 days of age, broilers were fed a feed comprising 50 ppm violacein for 7 days, and an autopsy was conducted at 14 days of age, and the feed, appendix luminal intestinal contents, blood, spleen, liver and kidney were collected. For the feed used in formulation with the violacein, Daehanfeed Al-Choi product was used.
Each sample of the collected tissue was tested for the content of violacein through the HPLC method. For feed pretreatment, 1 g of each treatment group was weighed and diluted by adding 10 ? of MTBE solution, and then sonication was progressed for 1 hour, and filtration was performed using a […] syringe filter. Then, after evaporating the filtered sample for 1 hour, 1 ? , of 100% methanol was added. In addition, sonication was conducted for 1 minute, and it not dissolved, the supernatant was filtered once more using a […] syringe filter, and then placed in a vial for analysis. […] Then, the samples in which pretreatment was completed were analyzed using a set LC/MS instrument to measure the amount of violacein remaining in a body after feeding, and the result was shown in Table 13 below. In Table 13, ND (not detected) means not detected.

[3] = tested on: Eimeria maxima (E. maxima) protozoa; assay: Heat resistance of violacein: protozoal death rate after heat exposure; assay type: cell-based
Experimental: In the present example, the heat resistance of the violacein was to be evaluated. […] 200,000 Eimeria maxima (E. maxima) protozoa were reacted to the violacein at various concentrations of 0.1 to 100 ppm at a temperature of 41° C. for 4 hours, and the protozoal death rate (%) was measured by the similar method to Example 3 above, and this was shown in FIG. 5 and Table 12. In Table 12 below, the control group means a violacein solution without treating the high temperature condition, and the protozoa alone means a group to which violacein was not treated.

In the case of O=C1N=c2ccccc2=C1c1cc(-c2c[nH]c3ccc(O)cc23)[nH]c1O [Violacein, 3-(2-(5-Hydroxyindol-3-yl)-5-oxo-2-pyrrolin-4-ylidene)-2-indolinone], the “Death rate according to violacein treatment condition” value (from here on “Death rate according”) ([1]; Control group (no acidic condition), 0.1 ppm) is reported as 64%, the “Death rate according” value ([1]; Control group (no acidic condition), 1 ppm) is reported as 85% and the “Death rate according” value ([1]; Control group (no acidic condition), 10 ppm) is reported as 100%. For the same compound, the “Death rate according” value ([1]; Control group (no acidic condition), 100 ppm, 41° C. 4 hours) was 100.00%, the “Acid resistance (killing efficacy after strong acidic condition)” value ([1]; acidic pH, 40° C., 1 hour, then neutralized) was “did not lose the killing efficacy” and the “Death rate according” value ([1]; pH 2, 1 h, 0.1 ppm) was 64%. For the same compound, the “Death rate according” value ([1]; pH 2, 1 h, 1 ppm) was 84%, the “Death rate according” value ([1]; pH 2, 1 h, 10 ppm) was 99% and the “Death rate according” value ([1]; pH 2, 1 h, 100 ppm) was 100.00%. The “Death rate according” value ([1]; pH 2.5, 1 h, 0.1 ppm) was 61%, the “Death rate according” value ([1]; pH 2.5, 1 h, 1 ppm) was 83% and the “Death rate according” value ([1]; pH 2.5, 1 h, 10 ppm) was 99%. The “Death rate according” value ([1]; pH 2.5, 1 h, 100 ppm) was 100.00%, the “Death rate according” value ([1]; pH 3, 1 h, 0.1 ppm) was 63% and the “Death rate according” value ([1]; pH 3, 1 h, 1 ppm) was 86%. The “Death rate according” value ([1]; pH 3, 1 h, 10 ppm) was 99%, the “Death rate according” value ([1]; pH 3, 1 h, 100 ppm) was 100.00% and the concentration at 7 days of feeding [2] was 2100 ng/g. For the same compound, the “Death rate according” value ([3]; 85° C., 10 min, 0.1 ppm) was 62%, the “Death rate according” value ([3]; 85° C., 10 min, 1 ppm) was 89% and the “Death rate according” value ([3]; 85° C., 10 min, 10 ppm) was 99%. The “Death rate according” value ([3]; 85° C., 10 min, 100 ppm) was 100%, the “Death rate according” value ([3]; 90° C., 10 min, 0.1 ppm) was 65% and the “Death rate according” value ([3]; 90° C., 10 min, 1 ppm) was 88%. For the same compound, the “Death rate according” value ([3]; 90° C., 10 min, 10 ppm) was 99%, the “Death rate according” value ([3]; 90° C., 10 min, 100 ppm) was 100% and the “Death rate according” value ([3]; 95° C., 10 min, 0.1 ppm) was 69%. The “Death rate according” value ([3]; 95° C., 10 min, 1 ppm) was 90%, the “Death rate according” value ([3]; 95° C., 10 min, 10 ppm) was 99% and the “Death rate according” value ([3]; 95° C., 10 min, 100 ppm) was 100%. The “Death rate according” value ([3]; Control group (no high temperature), 0.1 ppm) was 64%, the “Death rate according” value ([3]; Control group (no high temperature), 1 ppm) was 85% and the “Death rate according” value ([3]; Control group (no high temperature), 10 ppm) was 100%. The “Death rate according” value ([3]; Control group (no high temperature), 100 ppm, 41° C. 4 hours) was 100% and the “Heat resistance (killing efficacy after high temperature)” value ([3]; high temperature (80 to 95° C.), 10 minutes) was “the protozoal killing efficacy of violacein did not appear”.
